# Measured values: patent publication US11932595B2, “VDR-silent vitamin D derivative as inhibitors of SREBP and pharmaceutical use thereof” (KYOTO UNIVERSITY, priority 2020, dated 2024)
# Tests used:
# SREBP-responsive genes [1] = settings: low μM dose, cultured cells; cited from earlier work
# SREBP-responsive genes [2] = assay: Short-term in vivo model (fasting/refeeding): hepatic mRNA of SREBP-responsive genes by real-time PCR; parameters: species or system mice
# Procedure: (§1) To quickly and simultaneously examine their SREBP inhibitory activity and VDR-derived calcemic activity in vivo, a short-term in vivo screening system of mice was established. With reference to the previous report (Horton, J. D. et al. Proc. Natl. Acad. Sci. U.S.A. 1998, 95, 5987-5992.), mice were fasted for 48 hours then refed a special diet (low fat, high carbohydrate diet, lacking in vitamin D) for 48 hours before sacrifice.
# C57BL/6 and oh/oh mice were purchased from CLEA Japan and Charles River Japan, Inc., respectively. Animal experiments were carried out at the University of Tokyo and Charles River Laboratories. Low fat, high carbohydrate diet, lacking vitamin D was custom made by Research Diets, Inc. Compounds disclosed herein and 25(OH)D3 were dissolved in ethanol/Tween 20 (9:1) to obtain stock solution and then diluted 10-fold with PBS immediately before administration to mice.
# 10 mg/kg compounds or vehicle control were administered intraperitoneally once every 24 hours during the fasting and refeeding.
# Relative mRNA levels of SREBP-responsive genes were determined by real-time PCR in the livers obtained from the mice with free access to a normal diet or fasted and refed a special diet (means SEM, n=3 per group), *p<0.05.
# Expression levels of SREBP-responsive genes were determined by real-time PCR in the livers obtained from the mice treated with indicated compounds (10 mg/kg) according to the protocol illustrated in FIG. 5A. Data are expressed as relative expression to the mean value of vehicle-treated mouse liver (means±SEM, n=3 per group), *p<0.05 (FIG. 5C).
# Relative mRNA levels of SREBP-responsive genes were determined by real-time PCR in the livers obtained from the indicated mice Data are means±SEM (fed mice, n=3; others, n=6), *p<0.05 (FIG. 5E).
# SCAP protein = target: T1, SCAP protein (Mus musculus, UniProt Q6GQT6); assay: Short-term in vivo model: Western blot of SCAP protein in the liver; parameters: species or system mice; settings: FIG. 5F
# T1 construct: from tissue; host or cells: mouse liver
# T1 sequence (Q6GQT6 1-1276): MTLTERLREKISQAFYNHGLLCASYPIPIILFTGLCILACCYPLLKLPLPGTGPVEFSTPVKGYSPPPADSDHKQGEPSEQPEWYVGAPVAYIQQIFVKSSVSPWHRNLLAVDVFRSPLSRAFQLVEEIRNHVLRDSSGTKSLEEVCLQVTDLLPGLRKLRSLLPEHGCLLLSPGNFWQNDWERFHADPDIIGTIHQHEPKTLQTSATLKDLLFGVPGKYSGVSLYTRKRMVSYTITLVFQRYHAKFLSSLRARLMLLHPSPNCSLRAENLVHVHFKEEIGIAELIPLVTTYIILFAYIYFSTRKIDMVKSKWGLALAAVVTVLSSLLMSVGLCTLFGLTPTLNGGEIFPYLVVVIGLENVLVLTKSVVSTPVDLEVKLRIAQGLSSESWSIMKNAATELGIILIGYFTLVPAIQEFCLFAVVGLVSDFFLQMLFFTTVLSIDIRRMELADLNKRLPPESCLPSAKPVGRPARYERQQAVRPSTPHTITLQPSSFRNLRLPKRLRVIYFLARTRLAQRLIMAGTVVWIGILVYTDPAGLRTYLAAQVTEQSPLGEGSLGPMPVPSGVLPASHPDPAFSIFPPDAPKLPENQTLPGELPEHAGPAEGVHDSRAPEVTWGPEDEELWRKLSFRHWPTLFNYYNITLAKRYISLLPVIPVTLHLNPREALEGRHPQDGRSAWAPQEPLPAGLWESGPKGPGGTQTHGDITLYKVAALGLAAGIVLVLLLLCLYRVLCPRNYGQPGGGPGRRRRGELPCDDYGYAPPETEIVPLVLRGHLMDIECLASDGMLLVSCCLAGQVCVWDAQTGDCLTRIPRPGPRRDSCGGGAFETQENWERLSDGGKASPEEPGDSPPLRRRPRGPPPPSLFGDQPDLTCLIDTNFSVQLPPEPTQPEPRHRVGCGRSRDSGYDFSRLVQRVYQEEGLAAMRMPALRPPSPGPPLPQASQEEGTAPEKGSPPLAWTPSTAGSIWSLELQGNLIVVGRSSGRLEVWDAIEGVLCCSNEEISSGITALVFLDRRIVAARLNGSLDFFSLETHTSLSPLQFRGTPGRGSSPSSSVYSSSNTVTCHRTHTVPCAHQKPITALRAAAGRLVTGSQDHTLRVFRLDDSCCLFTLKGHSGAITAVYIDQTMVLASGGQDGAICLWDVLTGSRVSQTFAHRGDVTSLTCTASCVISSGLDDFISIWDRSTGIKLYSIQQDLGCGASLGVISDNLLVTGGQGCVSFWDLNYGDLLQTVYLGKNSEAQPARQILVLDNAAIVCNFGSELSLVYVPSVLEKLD
# Procedure: as §1, with “sacrifice. 10 mg/kg compounds or vehicle control were administered intraperitoneally once every 24 hours during the fasting and refeeding. Western blot analysis of SCAP protein in the livers obtained from the indicated mice were obtained, (FIG. 5F).” for “sacrifice.”
increased hepatic expression of SCAP protein after fasting and refeeding (SCAP protein),SMILES,cellular lipogenesis (SREBP-responsive genes [1]),"hepatic expression of SREBP-response genes ACC1 and FASN versus vehicle (SREBP-responsive genes [2]; 10 mg/kg intraperitoneally once every 24 hours, fasted 48 h/refed 48 h, n=3, FIG. 5C)","elevated hepatic expression of the three SREBP-responsive genes ACC1, FASN and SCD1 (SREBP-responsive genes [2]; 10 mg/kg intraperitoneally, fasting/refeeding, FIG. 5C)","elevated hepatic expression of the four SREBP-responsive genes, repeated examination (SREBP-responsive genes [2]; 10 mg/kg, increased number of mice (n=6), FIG. 5E)"
–,"C=C1CC[C@H](O)C/C1=C/C=C1\CCC[C@]2(C)[C@@H]([C@H](C)CCCC(C)(C)O)CC[C@@H]12 [25(OH)D3, 25-hydroxyvitamin D3, reference compound]",inhibits cellular lipogenesis,–,–,–
canceled,"C[C@H](CCC(F)(F)C(C)(C)O)[C@H]1CC[C@H]2/C(=C/Cn3nnnc3-c3ccccc3)CCC[C@]12C [Compound 50, (R)-3,3-Difluoro-2-methyl-6-{(1R,3aS,7aR,E)-7a-methyl-4-[2-(5-phenyl-1H-tetrazol-1-yl)ethylidene]octahydro-1H-inden-1-yl}heptan-2-ol]",–,significantly suppressed,mitigated the elevated expression,significantly mitigated
